According to publication PMC3748964 (Regulatory peptides, 2013):

Biological target: MT1 melatonin receptor (Oryctolagus cuniculus, UniProt G1U149)
Assay type: cell-based

Sequence of MT1 melatonin receptor (G1U149 1-312): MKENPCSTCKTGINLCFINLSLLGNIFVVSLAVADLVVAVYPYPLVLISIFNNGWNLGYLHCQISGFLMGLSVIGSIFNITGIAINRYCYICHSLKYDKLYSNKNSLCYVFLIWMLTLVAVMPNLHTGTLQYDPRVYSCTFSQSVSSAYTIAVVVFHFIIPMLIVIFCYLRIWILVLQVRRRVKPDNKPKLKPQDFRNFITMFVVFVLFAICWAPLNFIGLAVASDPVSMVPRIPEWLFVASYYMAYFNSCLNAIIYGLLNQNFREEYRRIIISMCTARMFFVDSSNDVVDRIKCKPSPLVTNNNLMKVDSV

COc1ccc2[nH]cc(CCNC(C)=O)c2c1 [Melatonin]
EC50: 4 ± 1 nM
